Measured values reported in patent US9113629B2, “4-amino-6-(4-substituted-phenyl)-picolinates and 6-amino-2-(4-substituted-phenyl)-pyrimidine-4-carboxylates and their use as herbicides” (DOW AGROSCIENCES LLC, priority 2013, dated 2015).
Like-named read-outs stand apart in the source and are kept apart here.

Columns and labels:
[1] = system: Key Broadleaf Weed and Crop Species; experiment: Post-emergent Test II herbicidal activity (Table 5); assay type: in vivo; conditions: post-emergence, 336 h, 14 days after application; for pest or weed control at 70 g/ha: application rate 70 g ai/ha; for pest or weed control at 140 g/ha: application rate 140 g ai/ha
How it was run: (§1)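 Greenhouse post-emergent assay: seedlings (first/second true leaf) in Metro-Mix 360 were sprayed at 187 L/ha at a top rate plus twofold dilutions down to 1/16×; solvent-blank controls were included. Percent visual injury was read at 14 d.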

[2] = system: Key Grass and Sedge Weeds as well as Grass Crops; experiment: Post-emergent Test II herbicidal activity (Table 6); assay type: in vivo; conditions: post-emergence, 336 h; for pest or weed control at 70 g/ha: 70 g ai/ha; for pest or weed control at 140 g/ha: 140 g ai/ha
How it was run: as §1

[3] = ABUTH: velvetleaf (Abutilon theophrasti), read-out: Visual Growth Reduction (%) 14 Days After Application, ABUTH
[4] = AMARE: redroot pigweed (Amaranthus retroflexus), read-out: Visual Growth Reduction (%) 14 Days After Application, AMARE
[5] = BRSNN: oilseed-rape, canola (Brassica napus), read-out: Visual Growth Reduction (%) 14 Days After Application, BRSNN
[6] = CHEAL: lambsquarters (Chenopodium album), read-out: Visual Growth Reduction (%) 14 Days After Application, CHEAL
[7] = EPHHL: wild poinsettia (Euphorbia heterophylla), read-out: Visual Growth Reduction (%) 14 Days After Application, EPHHL
[8] = HELAN: sunflower (Helianthus annuus), read-out: Visual Growth Reduction (%) 14 Days After Application, HELAN
[9] = VIOTR: wild pansy (Viola tricolor), read-out: Visual Growth Reduction (%) 14 Days After Application, VIOTR
[10] = CYPES: yellow nutsedge (Cyperus esculentus), read-out: Visual Growth Reduction (%) 14 Days After Application, CYPES
[11] = DIGSA: crabgrass (Digitaria sanguinalis), read-out: Visual Growth Reduction (%) 14 Days After Application, DIGSA
[12] = ECHCG: barnyardgrass (Echinochloa crus-galli), read-out: Visual Growth Reduction (%) 14 Days After Application, ECHCG
[13] = ORYSA: rice (Oryza sativa), crop, read-out: Visual Growth Reduction (%) 14 Days After Application, ORYSA
[14] = SETFA: giant foxtail (Setaria faberi), read-out: Visual Growth Reduction (%) 14 Days After Application, SETFA
[15] = SORVU: grain sorghum (Sorghum vulgare), read-out: Visual Growth Reduction (%) 14 Days After Application, SORVU
[16] = TRZSS (wheat, Triticum aestivum), crop, read-out: Visual Growth Reduction (%) 14 Days After Application, TRZSS
[17] = ZEAMX: maize, corn (Zea mays), crop, read-out: Visual Growth Reduction (%) 14 Days After Application, ZEAMX

Compound | pest or weed control at 70 g/ha [1, 3] | pest or weed control at 140 g/ha [1, 3] | pest or weed control at 70 g/ha [1, 4] | pest or weed control at 140 g/ha [1, 4] | pest or weed control at 70 g/ha [1, 5] | pest or weed control at 140 g/ha [1, 5] | pest or weed control at 70 g/ha [1, 6] | pest or weed control at 140 g/ha [1, 6] | pest or weed control at 70 g/ha [1, 7] | pest or weed control at 140 g/ha [1, 7] | pest or weed control at 70 g/ha [1, 8] | pest or weed control at 140 g/ha [1, 8] | pest or weed control at 70 g/ha [1, 9] | pest or weed control at 140 g/ha [1, 9] | pest or weed control at 70 g/ha [2, 10] | pest or weed control at 140 g/ha [2, 10] | pest or weed control at 70 g/ha [2, 11] | pest or weed control at 140 g/ha [2, 11] | pest or weed control at 70 g/ha [2, 12] | pest or weed control at 140 g/ha [2, 12] | other results
COC(=O)c1nc(-c2ccc(C#N)cc2)c(F)c(N)c1Cl [Compound 142] | 95 to 100% | 95 to 100% | 95 to 100% | 95 to 100% | 0 to 29% | 0 to 29% | 95 to 100% | 95 to 100% | 95 to 100% | 95 to 100% | 95 to 100% | 95 to 100% | 75 to 84% | 85 to 94% | 75 to 84% | 85 to 94% | 60 to 74% | 60 to 74% | 75 to 84% | 85 to 94% | pest or weed control at 70 g/ha [2, 13]: 0 to 29%; pest or weed control at 140 g/ha [2, 13]: 0 to 29%; pest or weed control at 70 g/ha [2, 14]: 0 to 29%; pest or weed control at 140 g/ha [2, 14]: 0 to 29%; pest or weed control at 70 g/ha [2, 15]: 45 to 59%; pest or weed control at 140 g/ha [2, 15]: 45 to 59%; pest or weed control at 70 g/ha [2, 16]: 0 to 29%; pest or weed control at 140 g/ha [2, 16]: 30 to 44%; pest or weed control at 70 g/ha [2, 17]: 45 to 59%; pest or weed control at 140 g/ha [2, 17]: 60 to 74%
Nc1c(F)c(-c2ccc(OC(F)F)cc2)nc(C(=O)O)c1Cl [Compound 143] | 85 to 94% | 85 to 94% | 60 to 74% | 85 to 94% | 60 to 74% | 85 to 94% | 85 to 94% | 85 to 94% | 95 to 100% | 95 to 100% | 60 to 74% | 85 to 94% | 30 to 44% | 30 to 44% | 85 to 94% | 85 to 94% | 75 to 84% | 75 to 84% | 95 to 100% | 95 to 100% | pest or weed control at 70 g/ha [2, 13]: 0 to 29%; pest or weed control at 140 g/ha [2, 13]: 30 to 44%; pest or weed control at 70 g/ha [2, 14]: 75 to 84%; pest or weed control at 140 g/ha [2, 14]: 75 to 84%; pest or weed control at 70 g/ha [2, 15]: 85 to 94%; pest or weed control at 140 g/ha [2, 15]: 85 to 94%; pest or weed control at 70 g/ha [2, 16]: 45 to 59%; pest or weed control at 140 g/ha [2, 16]: 60 to 74%; pest or weed control at 70 g/ha [2, 17]: 85 to 94%; pest or weed control at 140 g/ha [2, 17]: 85 to 94%
